From ChEMBL document CHEMBL1157124, “Synthesis and anticancer evaluation of alpha-lipoic acid derivatives” (Bioorg Med Chem Lett, 2010)
Active and inactive are the calls of the source. The calls are words filed in the database; no cut-off is given here.

Tests used:
Format in all cases: functional
[1] = Cytotoxicity against human HO8910 cells assessed as growth inhibition at 100 ug/ml after 24 hrs by MTT assay; conditions: HO-8910, 24 h, read-out: GI
[2] = Cytotoxicity against human HO8910 cells assessed as growth inhibition at 10 ug/ml after 24 hrs by MTT assay; conditions: HO-8910, 24 h, read-out: GI
[3] = Cytotoxicity against human HO8910 cells assessed as growth inhibition at 1 ug/ml after 24 hrs by MTT assay; conditions: HO-8910, 24 h, read-out: GI
[4] = Cytotoxicity against human HO8910 cells assessed as growth inhibition at 0.1 ug/ml after 24 hrs by MTT assay; conditions: HO-8910, 24 h, read-out: GI
KB [5] = test: Cytotoxicity against human KB cells assessed as growth inhibition at 100 ug/ml after 24 hrs by MTT assay; conditions: read-out: GI
KB [6] = test: Cytotoxicity against human KB cells assessed as growth inhibition at 10 ug/ml after 24 hrs by MTT assay; conditions: read-out: GI
KB [7] = test: Cytotoxicity against human KB cells assessed as growth inhibition at 1 ug/ml after 24 hrs by MTT assay; conditions: read-out: GI
KB [8] = test: Cytotoxicity against human KB cells assessed as growth inhibition at 0.1 ug/ml after 24 hrs by MTT assay; conditions: read-out: GI
Bel-7402 [9] = test: Cytotoxicity against human Bel7402 cells assessed as growth inhibition at 100 ug/ml after 24 hrs by MTT assay; conditions: Bel-7402, 24 h, read-out: GI
Bel-7402 [10] = test: Cytotoxicity against human Bel7402 cells assessed as growth inhibition at 10 ug/ml after 24 hrs by MTT assay; conditions: Bel-7402, 24 h, read-out: GI
PC-3 [11] = test: Cytotoxicity against human PC3 cells assessed as growth inhibition at 100 ug/ml after 24 hrs by MTT assay; conditions: PC-3, 24 h, read-out: GI
PC-3 [12] = test: Cytotoxicity against human PC3 cells assessed as growth inhibition at 10 ug/ml after 24 hrs by MTT assay; conditions: for inhibition of growth at 10 µg/mL: PC-3, 24 h, read-out: GI
PC-3 [13] = test: Cytotoxicity against human PC3 cells assessed as growth inhibition at 1 ug/ml after 24 hrs by MTT assay; conditions: for inhibition of growth at 1 µg/mL: PC-3, 24 h, read-out: GI
PC-3 [14] = test: Cytotoxicity against human PC3 cells assessed as growth inhibition at 0.1 ug/ml after 24 hrs by MTT assay; conditions: for inhibition of growth at 0.1 µg/mL: PC-3, 24 h, read-out: GI
NCI-H460 [15] = test: Cytotoxicity against human NCI-H460 cells assessed as growth inhibition at 100 ug/ml after 24 hrs by MTT assay; conditions: NCI-H460, 24 h, read-out: GI
NCI-H460 [16] = test: Cytotoxicity against human NCI-H460 cells assessed as growth inhibition at 10 ug/ml after 24 hrs by MTT assay; conditions: NCI-H460, 24 h, read-out: GI
NCI-H460 [17] = test: Cytotoxicity against human NCI-H460 cells assessed as growth inhibition at 1 ug/ml after 24 hrs by MTT assay; conditions: NCI-H460, 24 h, read-out: GI
Bel-7402 [18] = test: Cytotoxicity against human Bel7402 cells assessed as growth inhibition at 0.1 ug/ml after 24 hrs by MTT assay; conditions: Bel-7402, 24 h, read-out: GI
NCI-H460 [19] = test: Cytotoxicity against human NCI-H460 cells assessed as growth inhibition at 0.1 ug/ml after 24 hrs by MTT assay; conditions: NCI-H460, 24 h, read-out: GI
Bel-7402 [20] = test: Cytotoxicity against human Bel7402 cells assessed as growth inhibition at 1 ug/ml after 24 hrs by MTT assay; conditions: Bel-7402, 24 h, read-out: GI

Row | Compound | inhibition of growth at 100 µg/mL [1] | inhibition of growth at 10 µg/mL [2] | inhibition of growth at 1 µg/mL [3] | inhibition of growth at 0.1 µg/mL [4] | inhibition of growth at 100 µg/mL (KB [5]) | inhibition of growth at 10 µg/mL (KB [6]) | inhibition of growth at 1 µg/mL (KB [7]) | inhibition of growth at 0.1 µg/mL (KB [8]) | inhibition of growth at 100 µg/mL (Bel-7402 [9]) | inhibition of growth at 10 µg/mL (Bel-7402 [10]) | inhibition of growth at 100 µg/mL (PC-3 [11]) | inhibition of growth at 10 µg/mL (PC-3 [12]) | inhibition of growth at 1 µg/mL (PC-3 [13]) | inhibition of growth at 0.1 µg/mL (PC-3 [14]) | inhibition of growth at 100 µg/mL (NCI-H460 [15]) | inhibition of growth at 10 µg/mL (NCI-H460 [16]) | inhibition of growth at 1 µg/mL (NCI-H460 [17]) | inhibition of growth at 0.1 µg/mL (Bel-7402 [18]) | inhibition of growth at 0.1 µg/mL (NCI-H460 [19]) | inhibition of growth at 1 µg/mL (Bel-7402 [20]) | also measured
1 | O=C(CCCCC1CCSS1)Nc1cccc(C(F)(F)F)c1 (stereo unspecified) | 74.8% | 5.99% | 4.76% | 5% | 80% | 10.9% | 9.5% | 0.33% | 61.9% | 4.43% | 88.7% | 38.5% | 8.44% | 6.27% | 68.8% | 6.77% | 4.39% |  |  |  | 
2 | O=C(O)CCCCC(CCSC(=O)c1ccccc1)SC(=O)c1ccccc1 (stereo unspecified) | 86.7% |  | 0.29% |  | 89.8% | 2.68% | 0.68% |  | 81% | 2.76% | 91.2% | 7.43% | 9.86% | 9.54% | 72.8% |  | 0.77% | 1.09% |  |  | 
3 | O=C(CCCC[C@H]1CCSS1)Nc1ccc([N+](=O)[O-])c(C(F)(F)F)c1 | 92.3% |  |  | 1.06% | 95.8% |  |  |  | 94% |  | 79.8% |  |  |  | 92.2% |  |  |  |  |  | growth inhibition (GI) (PC-3 [12]): inactive; growth inhibition (GI) (PC-3 [13]): inactive; growth inhibition (GI) (PC-3 [14]): inactive
4 | O=C(CCCCC1CCSS1)Nc1ccc([N+](=O)[O-])cc1 (stereo unspecified) | 64.5% | 0.61% | 0.33% |  | 71.3% | 14.4% |  | 0.22% | 52.6% | 4.83% | 79.6% | 6.67% | 19.9% | 13.9% | 56.7% | 22.7% | 7.45% |  | 11.9% |  | 
5 | O=C(CCCCC1CCSS1)Nc1ccc(Cl)cc1 (stereo unspecified) | 74.8% | 0.75% |  |  | 83.1% | 21.7% | 18.6% | 16.4% | 76.4% | 7.01% | 41.2% | 14.7% | 13.7% | 18.9% | 68.7% | 18.3% | 10.9% | 3.37% | 13% | 0.64% | 
6 | O=C(CCCCC1CCSS1)Nc1cccc(Cl)c1 (stereo unspecified) | 68.3% |  |  |  | 76.5% | 7.88% |  | 2.85% | 68.2% | 4.15% | 79.5% | 13.8% | 8.44% | 17.1% | 65.2% | 10.1% | 8.85% | 0.33% | 6.08% | 1.11% | 
7 | Cc1cccc(NC(=O)CCCCC2CCSS2)c1 (stereo unspecified) | 62.7% |  | 4.54% | 3.68% | 68% | 4.13% | 5.2% | 4.29% | 49.9% | 9.01% | 75.1% | 9.57% | 9.98% | 2.13% | 52.9% | 4.15% | 7.82% | 9.88% | 7.97% | 10.3% | 
8 | O=C(CCCCC(S)CCS)Nc1ccc(OC(F)(F)F)cc1 (stereo unspecified) | 66.8% | 6.11% | 0.56% |  | 73.3% | 15% | 6% | 7.27% | 49.7% | 14.2% | 75.5% | 42.5% | 12.6% | 14.9% | 65.1% | 29.2% | 19.1% |  | 17.2% | 7.32% | 
9 | O=C(CCCCC1CCSS1)Nc1ccc([N+](=O)[O-])c(C(F)(F)F)c1 (stereo unspecified) | 47.6% |  | 0.96% |  | 49.5% |  |  | 4.5% | 23.9% |  | 90.2% |  |  | 5.37% | 51.6% | 12% | 19.1% | 5.04% | 18.8% | 7.46% | growth inhibition (GI) (PC-3 [12]): inactive; growth inhibition (GI) (PC-3 [13]): inactive
10 | O=C(CCCCC1CCSS1)Nc1ccc(F)cc1 (stereo unspecified) | 78.1% | 3.89% | 5.82% | 6.59% | 85.4% | 4.44% | 4.05% | 11.3% | 74.5% | 1.92% | 80.8% | 13.8% | 14.5% | 15.6% | 64.5% | 18.8% | 11.4% |  | 15.6% | 1.79% | 
11 | O=C(CCCCC(S)CCS)Nc1ccc(Cl)cn1 (stereo unspecified) | 71.2% | 21.9% |  | 2.65% | 76.5% | 21.6% |  |  | 50.7% | 17.8% | 32.4% | 10.8% | 0.89% |  | 55.8% | 27.4% |  |  |  | 2.34% | growth inhibition (GI) (PC-3 [14]): inactive
12 | COc1ccc(NC(=O)CCCCC2CCSS2)cc1 (stereo unspecified) | 43.8% | 6.34% | 3.54% | 1.64% | 48.3% | 2.94% | 5.03% | 4% | 38.7% | 6.32% |  |  |  |  | 45.7% | 9.82% | 0.51% | 5.48% | 3.82% | 7.93% | 
13 | O=C(CCCCC(S)CCS)Nc1ccc([N+](=O)[O-])c(C(F)(F)F)c1 (stereo unspecified) | 92.7% |  | 1.17% | 1.95% | 95.5% | 4.04% | 10.2% |  | 91.7% |  | 79.9% | 45.5% | 1.08% | 8.06% | 95.8% | 0.97% | 6.29% | 6.54% | 3.2% | 0.68% | 
14 | O=C(CCCC[C@@H]1CCSS1)Nc1ccc([N+](=O)[O-])c(C(F)(F)F)c1 | 39.2% |  |  |  | 49.1% |  |  |  | 43.4% |  | 59% |  |  |  | 35.4% |  |  |  |  |  | growth inhibition (GI) (PC-3 [12]): inactive; growth inhibition (GI) (PC-3 [13]): inactive; growth inhibition (GI) (PC-3 [14]): inactive
